Experimental data as given in patent US20250275540A1, “USE OF PROTOPORPHYRINOGEN OXIDASE” (BEIJING DABEINONG BIOTECHNOLOGY CO., LTD., priority 2022, published 2025).

Tested on: transgenic maize plants
Assay: Detection of the herbicide tolerance of the transgenic maize plants
Format: in vivo
Conditions: for The grade of pesticide damage/plant: 0 / The grade of pesticide damage/plant: 1 / The grade of pesticide damage/plant: 2 / The grade of pesticide damage/plant: 3: 7 DAT
Source text: The transformed Arabidopsis thaliana T1 plants were initially selected using glufosinate herbicide. The Arabidopsis thaliana T1 plants (PPOA-01) into which the PPOA-01 nucleotide sequence was introduced, the Arabidopsis thaliana T1 plants (PPOB-01) into which the PPOB-01 nucleotide sequence was introduced, the Arabidopsis thaliana T1 plants (PPOC-01) into which the PPOC-01 nucleotide sequence was introduced, the Arabidopsis thaliana T1 plants (PPOD-01) into which the PPOD-01 nucleotide sequence was introduced, the Arabidopsis thaliana T1 plants (PPOE-01) into which the PPOE-01 nucleotide sequence was introduced, the Arabidopsis thaliana T1 plants (PPOF-01) into which the PPOF-01 nucleotide sequence was introduced, the Arabidopsis thaliana T1 plants (PPO-AP-01) into which the PPO-AP-01 nucleotide sequence was introduced, and the Arabidopsis thaliana T1 plants (control vector) into which the control vector was introduced, the wild-type Arabidopsis thaliana plants (CK) (with 24 plants being included in each genotype) (18 days after sowing) were sprayed with saflufenacil at three concentrations (25 g ai/ha (one-fold field concentration, 1×), 100 g ai/ha (four-fold field concentration, 4×), and 0 g ai/ha (water, 0×)), oxyfluorfen at three concentrations (180 g ai/ha (one-fold field concentration, 1×), 720 g ai/ha (four-fold field concentration, 4×), and 0 g ai/ha (water, 0×)), and flumioxazin at three concentrations (60 g ai/ha (one-fold field concentration, 1×), 240 g ai/ha (four-fold field concentration, 4×), and 0 g ai/ha (water, 0×) to determine the tolerance of Arabidopsis thaliana to the herbicides. After 7 days of spraying (7 DAT), the damage level of each plant caused by the herbicide was evaluated according to the average of the damage levels (%) of plants (the average of the damage levels (%) of plants=the injured leaf area/the total leaf area×100%), i.e., the grade of pesticide damage: grade 0 means that the growth status of plants is essentially consistent with those sprayed with the blank solvent (water); grade 1 means that the average of the damage levels of plants is less than 10%; grade 2 means that the average of the damage levels of plants is greater than 10%; and grade 3 means that the average of the damage levels of plants is 100%. The plants having a growth status falling within grades 0 and 1 are classified as highly resistant plants; those having a growth status falling within grade 2 are classified as poorly resistant plants; and those having a growth status falling within grade 3 are classified as non-resistant plants.
The maize plants into which the PPOA-02 nucleotide sequence was introduced, the maize plants into which the PPOB-02 nucleotide sequence was introduced, the maize plants into which the PPOC-02 nucleotide sequence was introduced, the maize plants into which the PPOD-02 nucleotide sequence was introduced, the maize plants into which the PPOE-02 nucleotide sequence was introduced, the maize plants into which the PPOF-02 nucleotide sequence was introduced, the maize plants into which the PPO-AP-02 nucleotide sequence was introduced, the maize plants (control vector) into which the control vector was introduced, and the wild-type maize plants (CK) (with 16 plants being included in each genotype) (18 days after sowing) were taken and sprayed with saflufenacil at three concentrations (50 g ai/ha (two-fold field concentration, 2×), 100 g ai/ha (four-fold field concentration, 4×), and 0 g ai/ha (water, 0×)), oxyfluorfen at three concentrations (360 g ai/ha (two-fold field concentration, 2×), 720 g ai/ha (four-fold field concentration, 4×), and 0 g ai/ha (water, 0×), and flumioxazin at three concentrations (120 g ai/ha (two-fold field concentration, 2×), 240 g ai/ha (four-fold field concentration, 4×), and 0 g ai/ha (water, 0×) to determine the tolerance of maize plants to the herbicides. […]

[1] = genotype Control vector, 120 g ai/ha
[2] = genotype Control vector, 240 g ai/ha
[3] = genotype PPO-AP-02, 120 g ai/ha
[4] = genotype PPO-AP-02, 240 g ai/ha

## C#CCN1C(=O)COc2cc(F)c(N3C(=O)C4=C(CCCC4)C3=O)cc21 [flumioxazin, 2-[7-fluoro-3,4-dihydro-3-oxo-4-(2-propynyl)-2H-1,4-benzoxazin-6-yl]-4,5,6,7-tetrahydro-1H-isoindole-1,3(2H)-dione]
Genotype CK, 120 g ai/ha
  The grade of pesticide damage/plant: 0: 0 plant
  The grade of pesticide damage/plant: 1: 0 plant
  The grade of pesticide damage/plant: 2: 0 plant
  The grade of pesticide damage/plant: 3: 16 plant
Genotype CK, 240 g ai/ha
  The grade of pesticide damage/plant: 0: 0 plant
  The grade of pesticide damage/plant: 1: 0 plant
  The grade of pesticide damage/plant: 2: 0 plant
  The grade of pesticide damage/plant: 3: 16 plant
[1]
  The grade of pesticide damage/plant: 0: 0 plant
  The grade of pesticide damage/plant: 1: 0 plant
  The grade of pesticide damage/plant: 2: 0 plant
  The grade of pesticide damage/plant: 3: 16 plant
[2]
  The grade of pesticide damage/plant: 0: 0 plant
  The grade of pesticide damage/plant: 1: 0 plant
  The grade of pesticide damage/plant: 2: 0 plant
  The grade of pesticide damage/plant: 3: 16 plant
[3]
  The grade of pesticide damage/plant: 0: 0 plant
  The grade of pesticide damage/plant: 1: 0 plant
  The grade of pesticide damage/plant: 2: 3 plant
  The grade of pesticide damage/plant: 3: 13 plant
[4]
  The grade of pesticide damage/plant: 0: 0 plant
  The grade of pesticide damage/plant: 1: 0 plant
  The grade of pesticide damage/plant: 2: 0 plant
  The grade of pesticide damage/plant: 3: 16 plant
Genotype PPO-AP-02, at different concentrations
  tolerance to the herbicide (in words): basically no tolerance
Genotype PPOA-02, 120 g ai/ha
  The grade of pesticide damage/plant: 0: 16 plant
  The grade of pesticide damage/plant: 1: 0 plant
  The grade of pesticide damage/plant: 2: 0 plant
  The grade of pesticide damage/plant: 3: 0 plant
Genotype PPOA-02, 240 g ai/ha
  The grade of pesticide damage/plant: 0: 16 plant
  The grade of pesticide damage/plant: 1: 0 plant
  The grade of pesticide damage/plant: 2: 0 plant
  The grade of pesticide damage/plant: 3: 0 plant
Genotype PPOB-02, 120 g ai/ha
  The grade of pesticide damage/plant: 0: 16 plant
  The grade of pesticide damage/plant: 1: 0 plant
  The grade of pesticide damage/plant: 2: 0 plant
  The grade of pesticide damage/plant: 3: 0 plant
Genotype PPOB-02, 240 g ai/ha
  The grade of pesticide damage/plant: 0: 16 plant
  The grade of pesticide damage/plant: 1: 0 plant
  The grade of pesticide damage/plant: 2: 0 plant
  The grade of pesticide damage/plant: 3: 0 plant
Genotype PPOC-02, 120 g ai/ha
  The grade of pesticide damage/plant: 0: 16 plant
  The grade of pesticide damage/plant: 1: 0 plant
  The grade of pesticide damage/plant: 2: 0 plant
  The grade of pesticide damage/plant: 3: 0 plant
Genotype PPOC-02, 240 g ai/ha
  The grade of pesticide damage/plant: 0: 16 plant
  The grade of pesticide damage/plant: 1: 0 plant
  The grade of pesticide damage/plant: 2: 0 plant
  The grade of pesticide damage/plant: 3: 0 plant
Genotype PPOD-02, 120 g ai/ha
  The grade of pesticide damage/plant: 0: 16 plant
  The grade of pesticide damage/plant: 1: 0 plant
  The grade of pesticide damage/plant: 2: 0 plant
  The grade of pesticide damage/plant: 3: 0 plant
Genotype PPOD-02, 240 g ai/ha
  The grade of pesticide damage/plant: 0: 16 plant
  The grade of pesticide damage/plant: 1: 0 plant
  The grade of pesticide damage/plant: 2: 0 plant
  The grade of pesticide damage/plant: 3: 0 plant
Genotype PPOE-02, 120 g ai/ha
  The grade of pesticide damage/plant: 0: 16 plant
  The grade of pesticide damage/plant: 1: 0 plant
  The grade of pesticide damage/plant: 2: 0 plant
  The grade of pesticide damage/plant: 3: 0 plant
Genotype PPOE-02, 240 g ai/ha
  The grade of pesticide damage/plant: 0: 16 plant
  The grade of pesticide damage/plant: 1: 0 plant
  The grade of pesticide damage/plant: 2: 0 plant
  The grade of pesticide damage/plant: 3: 0 plant
Genotype PPOF-02, 120 g ai/ha
  The grade of pesticide damage/plant: 0: 16 plant
  The grade of pesticide damage/plant: 1: 0 plant
  The grade of pesticide damage/plant: 2: 0 plant
  The grade of pesticide damage/plant: 3: 0 plant
Genotype PPOF-02, 240 g ai/ha
  The grade of pesticide damage/plant: 0: 16 plant
  The grade of pesticide damage/plant: 1: 0 plant
  The grade of pesticide damage/plant: 2: 0 plant
  The grade of pesticide damage/plant: 3: 0 plant
Genotypes PPOA-02 to PPOF-02, at different concentrations
  tolerance to the herbicide (in words): high-resistant tolerance
